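How tested: cells in 96-well plates exposed to compound for 48 hours at five concentrations. At the GI50, growth is halved. TGI: total growth inhibition.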
Key:
Assay in all cases: inhibition of tumour cell growth, NCI panel, 48 h
SNB-19 CNS = tested on: SNB-19 CNS
LXFL 529 NSCLC = tested on: LXFL 529 NSCLC
NCI-H460 lung = tested on: NCI-H460 lung
U251 CNS = tested on: U251 CNS
TK-10 renal = tested on: TK-10 renal
MALME-3M melanoma = tested on: MALME-3M melanoma
OVCAR-8 ovarian = tested on: OVCAR-8 ovarian
SK-MEL-2 melanoma = tested on: SK-MEL-2 melanoma
EKVX NSCLC = tested on: EKVX NSCLC
OVCAR-3 ovarian = tested on: OVCAR-3 ovarian
SN12C renal = tested on: SN12C renal
RXF 393 renal = tested on: RXF 393 renal
DLD-1 colon = tested on: DLD-1 colon
M19-MEL melanoma = tested on: M19-MEL melanoma
HCT-116 colon = tested on: HCT-116 colon
MOLT-4 leukemia = tested on: MOLT-4 leukemia
SW-620 colon = tested on: SW-620 colon
SF-539 CNS = tested on: SF-539 CNS
A549 NSCLC = tested on: A549 NSCLC
CCRF-CEM leukemia = tested on: CCRF-CEM leukemia
HCT-15 colon = tested on: HCT-15 colon
M14 melanoma = tested on: M14 melanoma
DMS 273 small cell lung = tested on: DMS 273 small cell lung
CAKI-1 renal = tested on: CAKI-1 renal
K-562 leukemia = tested on: K-562 leukemia
HL-60(TB) leukemia = tested on: HL-60(TB) leukemia
HCC-2998 colon = tested on: HCC-2998 colon
786-0 renal = tested on: 786-0 renal
UACC-257 melanoma = tested on: UACC-257 melanoma
KM20L2 colon = tested on: KM20L2 colon
RXF-631 renal = tested on: RXF-631 renal
SK-OV-3 ovarian = tested on: SK-OV-3 ovarian
IGROV1 ovarian = tested on: IGROV1 ovarian
NCI-H226 lung = tested on: NCI-H226 lung
SF-268 CNS = tested on: SF-268 CNS
KM12 colon = tested on: KM12 colon
SNB-78 CNS = tested on: SNB-78 CNS
NCI-H522 lung = tested on: NCI-H522 lung
SF-295 CNS = tested on: SF-295 CNS
OVCAR-5 ovarian = tested on: OVCAR-5 ovarian
RPMI-8226 leukemia = tested on: RPMI-8226 leukemia
LOX IMVI melanoma = tested on: LOX IMVI melanoma
ACHN renal = tested on: ACHN renal
OVCAR-4 ovarian = tested on: OVCAR-4 ovarian
NCI-H23 lung = tested on: NCI-H23 lung
HOP-92 NSCLC = tested on: HOP-92 NSCLC
HOP-62 NSCLC = tested on: HOP-62 NSCLC
SK-MEL-28 melanoma = tested on: SK-MEL-28 melanoma
UACC-62 melanoma = tested on: UACC-62 melanoma
UO-31 renal = tested on: UO-31 renal
SNB-75 CNS = tested on: SNB-75 CNS
COLO 205 colon = tested on: COLO 205 colon
SK-MEL-5 melanoma = tested on: SK-MEL-5 melanoma
XF 498 CNS = tested on: XF 498 CNS
DMS 114 small cell lung = tested on: DMS 114 small cell lung
HT29 colon = tested on: HT29 colon
HOP-18 NSCLC = tested on: HOP-18 NSCLC

Compound: CCC[CH2][Sn]1([CH2]CCC)[O]CC[S]1
- GI50 (SNB-19 CNS): 446 nM
- TGI (SNB-19 CNS): 1600 nM
- GI50 (LXFL 529 NSCLC): 134 nM
- TGI (LXFL 529 NSCLC): 579 nM
- GI50 (NCI-H460 lung): 1770 nM
- TGI (NCI-H460 lung): 3720 nM
- GI50 (U251 CNS): 564 nM
- TGI (U251 CNS): 1640 nM
- GI50 (TK-10 renal): 508 nM
- TGI (TK-10 renal): 1390 nM
- GI50 (MALME-3M melanoma): 299 nM
- TGI (MALME-3M melanoma): 1390 nM
- GI50 (OVCAR-8 ovarian): 1190 nM
- TGI (OVCAR-8 ovarian): 2680 nM
- GI50 (SK-MEL-2 melanoma): 298 nM
- TGI (SK-MEL-2 melanoma): 1010 nM
- GI50 (EKVX NSCLC): 749 nM
- TGI (EKVX NSCLC): 2100 nM
- GI50 (OVCAR-3 ovarian): 848 nM
- TGI (OVCAR-3 ovarian): 2130 nM
- GI50 (SN12C renal): 818 nM
- TGI (SN12C renal): 2120 nM
- GI50 (RXF 393 renal): 156 nM
- TGI (RXF 393 renal): 332 nM
- GI50 (DLD-1 colon): 470 nM
- TGI (DLD-1 colon): 1730 nM
- GI50 (M19-MEL melanoma): 475 nM
- TGI (M19-MEL melanoma): 2750 nM
- GI50 (HCT-116 colon): 1160 nM
- TGI (HCT-116 colon): 2900 nM
- GI50 (MOLT-4 leukemia): 370 nM
- TGI (MOLT-4 leukemia): 2400 nM
- GI50 (SW-620 colon): 268 nM
- TGI (SW-620 colon): 1110 nM
- GI50 (SF-539 CNS): 736 nM
- TGI (SF-539 CNS): 2030 nM
- GI50 (A549 NSCLC): 2210 nM
- TGI (A549 NSCLC): 6030 nM
- GI50 (CCRF-CEM leukemia): 177 nM
- TGI (CCRF-CEM leukemia): 814 nM
- GI50 (HCT-15 colon): 799 nM
- TGI (HCT-15 colon): 2250 nM
- GI50 (M14 melanoma): 872 nM
- TGI (M14 melanoma): 2680 nM
- GI50 (DMS 273 small cell lung): 1130 nM
- TGI (DMS 273 small cell lung): 3560 nM
- GI50 (CAKI-1 renal): 221 nM
- TGI (CAKI-1 renal): 1510 nM
- GI50 (K-562 leukemia): 150 nM
- TGI (K-562 leukemia): 1280 nM
- GI50 (HL-60(TB) leukemia): 268 nM
- TGI (HL-60(TB) leukemia): 1220 nM
- GI50 (HCC-2998 colon): 1050 nM
- TGI (HCC-2998 colon): 2260 nM
- GI50 (786-0 renal): 516 nM
- TGI (786-0 renal): 1700 nM
- GI50 (UACC-257 melanoma): 679 nM
- TGI (UACC-257 melanoma): 2040 nM
- GI50 (KM20L2 colon): 1410 nM
- TGI (KM20L2 colon): 2750 nM
- GI50 (RXF-631 renal): 285 nM
- TGI (RXF-631 renal): 1340 nM
- GI50 (SK-OV-3 ovarian): 1610 nM
- TGI (SK-OV-3 ovarian): 2960 nM
- GI50 (IGROV1 ovarian): 1550 nM
- TGI (IGROV1 ovarian): 4640 nM
- GI50 (NCI-H226 lung): 1020 nM
- TGI (NCI-H226 lung): 2360 nM
- GI50 (SF-268 CNS): 363 nM
- TGI (SF-268 CNS): 1440 nM
- GI50 (KM12 colon): 1190 nM
- TGI (KM12 colon): 3020 nM
- GI50 (SNB-78 CNS): 494 nM
- TGI (SNB-78 CNS): 2260 nM
- GI50 (NCI-H522 lung): 41 nM
- TGI (NCI-H522 lung): 187 nM
- GI50 (SF-295 CNS): 1420 nM
- TGI (SF-295 CNS): 2760 nM
- GI50 (OVCAR-5 ovarian): 1390 nM
- TGI (OVCAR-5 ovarian): 2720 nM
- GI50 (RPMI-8226 leukemia): 162 nM
- TGI (RPMI-8226 leukemia): 551 nM
- GI50 (LOX IMVI melanoma): 459 nM
- TGI (LOX IMVI melanoma): 1700 nM
- GI50 (ACHN renal): 1030 nM
- TGI (ACHN renal): 2230 nM
- GI50 (OVCAR-4 ovarian): 1570 nM
- TGI (OVCAR-4 ovarian): 3000 nM
- GI50 (NCI-H23 lung): 398 nM
- TGI (NCI-H23 lung): 1820 nM
- GI50 (HOP-92 NSCLC): 656 nM
- TGI (HOP-92 NSCLC): 2190 nM
- GI50 (HOP-62 NSCLC): 2090 nM
- TGI (HOP-62 NSCLC): 3590 nM
- GI50 (SK-MEL-28 melanoma): 238 nM
- TGI (SK-MEL-28 melanoma): 898 nM
- GI50 (UACC-62 melanoma): 392 nM
- TGI (UACC-62 melanoma): 1560 nM
- GI50 (UO-31 renal): 1280 nM
- TGI (UO-31 renal): 2540 nM
- GI50 (SNB-75 CNS): 610 nM
- TGI (SNB-75 CNS): 1920 nM
- GI50 (COLO 205 colon): 969 nM
- TGI (COLO 205 colon): 3290 nM
- GI50 (SK-MEL-5 melanoma): 324 nM
- TGI (SK-MEL-5 melanoma): 1150 nM
- GI50 (XF 498 CNS): 476 nM
- TGI (XF 498 CNS): 1020 nM
- GI50 (DMS 114 small cell lung): 272 nM
- TGI (DMS 114 small cell lung): 1260 nM
- GI50 (HT29 colon): 1270 nM
- TGI (HT29 colon): 2810 nM
- GI50 (HOP-18 NSCLC): 717 nM
- TGI (HOP-18 NSCLC): 1890 nM
